As a reminder, the EC50 is the concentration at which the effect is half-maximal. Broadly, the IC50 is the point on the concentration scale where inhibition reaches its midpoint.

Among the data in PubChem BioAssay AID179 (DTP/NCI, 2004) are EC50, IC50 and outcome values, retold here.

The source made the active and inactive calls.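 How the source made its calls: active means compounds giving half or more protection of infected cells from virus-caused growth loss, again on retest; inactive means the rest.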 Where a SMILES comes first, the peptide text is derived from it. Bridges are numbered along the chain shown (N, C = ends). The star is where a group is joined. Cbz = O=C(OCc1ccccc1)* Where only a bound is given, the exact number is not on record here.

The assay relates to CEM cells HIV-1 protection, formazan growth assay. The experiment in a line: NCI AIDS Antiviral Assay. The conditions noted are these: for IC50: measured here: growth of uninfected CEM cells. A digest of the protocol: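 Human CEM cells, uninfected and HIV-1-infected, exposed to five drug concentrations; growth measured by soluble formazan assay and scored as percent protection from infection, with protecting compounds retested.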

On to `COc1ccc(S(=O)(=O)N(C)C)cc1C(=O)c1cc(S(=O)(=O)N(C)C)ccc1OC`, for which the EC50 was over 2.29 µM and the half-inhibitory concentration (IC50) was over 2.29 µM.
As to `Nc1ccccc1/C=C1/Sc2cc[nH]c2C1=O`, the EC50 was over 63.1 µM and the IC50 was over 63.1 µM.
For the compound `COC1/C=C/OC2(C)Oc3c(C)c(O)c4c(O)c(cc(OCC(=O)N(C)C)c4c3C2=O)NC(=O)/C(C)=C/C=C/C(C)C(O)C(C)C(O)C(C)C(OC(C)=O)C1C` (stereo unspecified), the EC50 was over 200 µM and the IC50 came to 31.6 µM.
As for `CCOc1ccc(C(C2=C(O)c3ccccc3C(=O)C2=O)C2=C(O)c3ccccc3C(=O)C2=O)cc1OC`, the EC50 is over 200 µM and the IC50 stood at 29.5 µM.
The corresponding values for `O=C1C=C(N2CCOCC2)C(=O)c2nccnc21` are over 15.5 µM and 10.2 µM.
Consider `COC(=O)/C(=C(\C)C=O)N1C(=O)C(NC(=O)c2ccccc2)C1SSc1nc2ccccc2s1` (stereo unspecified), for which the EC50 is over 200 µM and the 50% inhibitory concentration (IC50) is 12.9 µM.
For `O=C1Sc2ccccc2C(=O)N2CCSC12` (stereo unspecified), in that order: 126 µM and over 200 µM.
As to `COc1ccc(CC2Cc3ccccc3CCN2)cc1OC` (stereo unspecified), the result was inactive.
For the compound `CCOC(=O)CC(C(=O)OCC)S(=O)(=O)O` (stereo unspecified), the EC50 is over 200 µM and the IC50 was over 200 µM.
Turning to `CCOC(=O)C(NCc1ccc2c(c1)OCO2)(NC(=O)c1ccccc1)C(F)(F)F` (stereo unspecified), the EC50 was over 200 µM and the IC50 came out at 30.2 µM.
The corresponding values for `CC1(C)OC2C3CCC(C)(C3)C2(c2ccccc2)O1` (stereo unspecified) are over 87.1 µM and over 87.1 µM.
The corresponding values for `C=CCCC1CCCCC/C1=N\N(C)C` (stereo unspecified) are over 200 µM and over 200 µM.
For `CCC(=O)N1C(=O)C(C)C23c4cc(OC)c(OC)cc4C(=O)N2CCCN13` (stereo unspecified), in that order: over 240 µM and over 240 µM.
As to `OC1c2ccccc2C2C(O)c3ccccc3C12` (stereo unspecified), the outcome was inactive.
The same measure, in the same setting: the same measure for `O=C1CCCC/C(=C/c2ccccc2)N1`: “inactive”.
Consider `CCCCCCC(O)C/C=C/CCCCCC/C(C(=O)OC)=C(/O)C(=O)OCC` (stereo unspecified), for which the EC50 was over 83.2 µM and the IC50 was over 83.2 µM.
`CCOC(=O)C1=NN(c2ccccc2)C(=O)/C1=C\N1CC(=O)NC1=S`: the EC50 is over 200 µM and the half-maximal inhibitory concentration (IC50) is over 100 µM.
Turning to `C=C1CCC2(C)[C@H](C)CC[C@H](O)C2(CCC=C(C)C)[C@@H]1Cc1c[nH]c2ccccc12` (stereo partly specified), the outcome was inactive.
Take `CN=C(N)c1ccc(N=C(N)c2cccc(C(N)=Nc3ccc(C(N)=NC)cc3)c2)cc1`: the EC50 is over 200 µM and the IC50 is over 200 µM.
`O=C1NC(O)c2cccc(Cl)c2O1` (stereo unspecified): the outcome was inactive.
On to `CC1=C(C(=O)Nc2ccccc2C)C(c2ccccc2)C(C(=O)Nc2ccccc2C)=C(C)N1`, for which the EC50 is over 11.5 µM and the IC50 is over 11.5 µM.
Consider `COc1cc2c(cc1OC)C(=O)C(C1=C(SC(=N)N)C(=O)c3cc(OC)c(OC)cc31)C2` (stereo unspecified), for which the EC50 is over 28.2 µM and the IC50 was over 28.2 µM.
`CN1C(=O)c2ccccc2Cc2c(N3CCCC3)ncnc21`: the EC50 is over 17.8 µM and the IC50 is over 17.8 µM.
As to `CCN(CC)CCCNc1nccc2c(C)c3c(cc12)c1cnccc1n3C`, the result was inactive.
In the case of `NNC(=O)CNC(=O)c1ccc(Cl)cc1Cl`, the EC50 was over 27.5 µM and the IC50 was over 27.5 µM.
For the compound `CN(C)c1ccc(CC2CCc3ccccc32)cc1` (stereo unspecified), the EC50 was over 20.9 µM and the IC50 was over 20.9 µM.
`Cc1ccc(C2=NOC(=O)[C@@H]3CCCC[C@@H]23)cc1`: the EC50 is over 200 µM and the IC50 turned out to be 97.7 µM.
As for `Cc1ccc2c(c1)NC(=O)C(N=[N+]=[N-])(c1ccccc1)C2=O` (stereo unspecified), the EC50 was over 200 µM and the IC50 was found to be 49 µM.
Regarding `COc1ccc(/C=C2/C(=O)C(c3ccccc3)N(c3ccccc3)C2=O)cc1OC` (stereo unspecified), the EC50 was over 200 µM and the IC50 turned out to be 107 µM.
In the case of `O=C1C2=C(c3ccccc31)C(c1cccc(Cl)c1)NC(=S)N2` (stereo unspecified), the EC50 is over 57.5 µM and the IC50 is 35.5 µM.
For `CN(CCc1ccc(Br)cc1)CCN1CCCCC1`, in that order: over 123 µM and 57.5 µM.
Regarding `Cc1ccc(OCC(=O)N2N=C(c3ccccc3)CC2(O)c2ccccc2)cc1` (stereo unspecified), the EC50 is over 25.7 µM and the IC50 is over 25.7 µM.
Turning to `Cc1ccc(NC(=O)/C(CC(=O)c2sc(Nc3ccccc3Cl)nc2C)=N\Nc2ccc([N+](=O)[O-])cc2[N+](=O)[O-])c(C)c1`, the EC50 was over 200 µM and the IC50 is 97.7 µM.
Turning to `COC(=O)C1CCCCNC(=O)CCC(NC(=O)OCc2ccccc2)C(=O)N1` (stereo not drawn) (Cbz-Glu-Lys-OMe; lactam 1-2; configuration not given here), the EC50 is over 200 µM and the IC50 is over 200 µM.
In the case of `CSc1nc(NC2OC(COC(C)=O)C(OC(C)=O)C(OC(C)=O)C2OC(C)=O)c(N=C(C)C(C)=O)c(=O)[nH]1` (stereo unspecified), the outcome was inactive.
Regarding `O=C(/C=C/c1ccccc1)c1ccc(NCc2nc3ccccc3[nH]2)cc1`, the EC50 is over 20.4 µM and the IC50 is 11 µM.
The corresponding values for `Cc1ccc2nsnc2c1[N+](=O)[O-]` are over 257 µM and over 257 µM.
The corresponding values for `Cc1cn(C2CC(NC(=O)NO)C(CO)O2)c(=O)[nH]c1=O` (stereo unspecified) are over 200 µM and over 200 µM.
Regarding `COc1ccccc1NC(=O)CC(=O)N1N=C(N(c2ccccc2)c2ccccc2)CC1c1ccccc1` (stereo unspecified), the outcome was inactive and the IC50 was over 100 µM.
As to `CCC1=NC(N/N=C/c2ccco2)=N/C1=C\c1ccccc1O`, the EC50 was over 50.1 µM.
As for `C=CCSSSCC=C`, the EC50 is over 120 µM and the IC50 worked out at 63.1 µM.
On to `Cc1cc(N(CCC#N)CCC#N)ccc1/C=N/NC(=O)c1ccccc1`, for which the EC50 is over 200 µM and the 50% inhibitory concentration (IC50) turned out to be 7.41 µM.
For `COc1cc(/C=C2\CCc3ccccc3C2=O)ccc1O`, in that order: over 200 µM and 9.33 µM.
The corresponding values for `CC(C)CC(N)C(=O)NC(CC(=O)O)C(=O)NC(CCCCN)C(=O)NC(C)C(=O)NC(CO)C(=O)NC(Cc1ccc(O)cc1)C(=O)NC(CO)C(=O)NC(C(=O)NC(CC(N)=O)C(=O)NC(Cc1cnc[nH]1)C(=O)NC(CC(C)C)C(N)=O)C(C)O` (stereo unspecified) (H-LDKASYSTNHL-NH2; configuration not given here) are over 50.1 µM and over 50.1 µM.
As for `CC1=CC(C)(C)C(C#N)(C#N)C(N)=C1C#N`, the EC50 was over 200 µM and the 50% inhibitory concentration (IC50) came out at 95.5 µM.
On to `CC(C)(C)C1=C(Br)C(F)(C(C)(C)C)OP1(=O)c1ccccc1` (stereo unspecified), for which the EC50 was over 200 µM and the IC50 was 25.7 µM.
The corresponding values for `NN=C(N)N` are over 200 µM and over 200 µM.
Regarding `Cc1[nH]c(-c2ccccc2)c2nc(N(C)C)oc(=O)c12`, the EC50 is over 200 µM and the IC50 is over 200 µM.
With `CCCCCCCCCCN=C(N)CSSCC(N)=NCCCCCCCCCC`, the EC50 is over 200 µM and the IC50 was determined as 16.6 µM.
For `COC(=O)CCCCC(c1cc(Cl)c(OC)c(C(=O)OC)c1)c1cc(Cl)c(OC)c(C(=O)OC)c1`, in that order: over 200 µM and 13.5 µM.
The corresponding values for `NC(CCCCCP(=O)(c1ccccc1)C1C=CC=CC1)C(=O)O` (stereo unspecified) are over 200 µM and over 200 µM.
Consider `Cc1cc(-c2cccs2)oc(=O)c1NC(=O)c1ccccc1`, for which the EC50 is over 200 µM and the IC50 was 26.9 µM.
For `COC(=O)C1CC2c3[nH]c4ccccc4c3CCN2C1` (stereo unspecified), in that order: over 275 µM and over 275 µM.
The corresponding values for `NC(=O)CCC(F)(C(N)=O)C(N)=O` are over 200 µM and over 200 µM.
Regarding `CC(=O)ON(OC(C)=O)c1ccc(C)cc1`, the EC50 was over 200 µM and the IC50 is over 200 µM.
Consider `C1=CNc2ccccc2N=C1`, for which the EC50 was over 200 µM and the IC50 is over 200 µM.
On to `COc1ccccc1NC(=O)/C(=C/C1CC(=O)NC1=S)C(C)=O` (stereo unspecified), for which the EC50 was over 200 µM and the half-inhibitory concentration (IC50) was over 200 µM.
For `NC1=NS(=O)(=O)Nc2nc(-c3ccc([N+](=O)[O-])o3)[nH]c21`, the EC50 is over 200 µM and the IC50 stood at 10 µM.
Consider `O=C(NCCCCCCCN1CCCCCC1)C1c2ccccc2-c2ccccc21`, for which the EC50 was over 200 µM and the IC50 was determined as 39.8 µM.
The corresponding values for `CCc1ccccc1NC(=O)C1=C(C)NC(C)=C(C(=O)Nc2ccccc2CC)C1c1ccccc1Cl` are over 10 µM and over 10 µM.
With `CCSC1=C(C)N(C=NC(C)(C)C)CC1`, the EC50 is over 1100 µM and the IC50 was over 1100 µM.
`O=C1/C(=C\c2c(-c3ccccc3)nn(-c3ccccc3)c2O)C(c2ccccc2)=NN1c1ccccc1`: the EC50 was over 100 µM and the IC50 was over 100 µM.
Regarding `c1ccc(-c2ccnc3c2ccc2c(-c4ccccc4)ccnc23)cc1`, the EC50 is over 21.9 µM and the IC50 was 11.5 µM.
For `CN(C)c1nc2sc3c(c2c(=O)o1)CCCC3`, in that order: over 200 µM and 51.3 µM.
The corresponding values for `CCOC(=O)CCC(=O)C1c2cccc(O)c2C(=O)c2c(O)cccc21` are over 28.2 µM and 4.9 µM.
The corresponding values for `CS/C(c1ccccc1)=[N+](\[O-])Cc1ccccc1` are over 646 µM and 457 µM.
With `CC1CSc2nc3[nH]c(=S)[nH]c3c(=O)n2C1` (stereo unspecified), the EC50 is over 200 µM and the IC50 is over 200 µM.
With `CCCCCCCCCCC[N+]1(Cc2ccccc2)CC2CCN(Cc3ccccc3)CC2C1` (stereo unspecified), the EC50 was over 2 µM and the 50% inhibitory concentration (IC50) was determined as 0.234 µM.
Consider `CCC(C#N)N(Cc1ccc(CN(C(=O)c2ccccc2)C(C#N)CC)cc1)C(=O)c1ccccc1` (stereo unspecified), for which the EC50 is over 200 µM and the IC50 was found to be 8.71 µM.
`CC(=O)C(C(=O)CCSCCO)C(SCCO)c1ccc(Cl)c(Cl)c1` (stereo unspecified): the EC50 was over 200 µM and the IC50 is 10.5 µM.
For `Cc1ccc2c(c1)-c1c3c(nn1-c1ccccc1)-c1ccccc1SC3O2` (stereo unspecified), in that order: over 3.89 µM and over 3.89 µM.
Take `O=C(NNC(=S)Nc1ccccc1)c1nsc2ccccc12`: the EC50 was over 110 µM and the IC50 worked out at 17.8 µM.
